Data taken from PMC8950244, “New Alpha-Amylase Inhibitory Metabolites from Pericarps of Garcinia mangostana” (Life, 2022).

Target: T1, porcine pancreatic α-amylase (Sus scrofa, UniProt P00690)
T1 construct: gene AMY2
T1 sequence (P00690 16-511): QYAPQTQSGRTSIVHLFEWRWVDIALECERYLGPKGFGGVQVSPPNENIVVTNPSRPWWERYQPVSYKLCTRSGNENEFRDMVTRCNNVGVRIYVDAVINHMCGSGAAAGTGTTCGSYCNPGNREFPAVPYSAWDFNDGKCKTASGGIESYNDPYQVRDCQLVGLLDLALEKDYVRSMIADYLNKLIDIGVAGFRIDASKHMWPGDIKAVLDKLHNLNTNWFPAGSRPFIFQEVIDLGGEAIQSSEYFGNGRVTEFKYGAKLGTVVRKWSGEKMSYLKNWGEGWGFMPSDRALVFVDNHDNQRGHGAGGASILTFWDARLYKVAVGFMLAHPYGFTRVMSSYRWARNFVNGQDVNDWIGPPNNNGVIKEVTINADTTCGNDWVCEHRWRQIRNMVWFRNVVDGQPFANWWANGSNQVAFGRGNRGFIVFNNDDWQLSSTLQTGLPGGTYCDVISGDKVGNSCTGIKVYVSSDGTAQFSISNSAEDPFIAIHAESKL
Assay: fluorescence DQ starch hydrolysis assay (EnzChek Ultra Amylase kit)
Format: biochemical

IC50 [µM] | Compound
16.1 | CC(C)=CCc1c(O)cc2oc3c(/C=C\C(C)(C)O)c(O)c(O)c(CC=C(C)C)c3c(=O)c2c1O [compound 5, mangostanaxanthone VI]
12.2 | O=C(c1cc(O)cc(O)c1O)c1c(O)cc(O)cc1O [compound 6, garcimangophenone A]
9.3 | O=C(c1cc(O)ccc1O)c1c(O)cc(O)cc1O[C@@H]1O[C@H](CO)[C@@H](O)[C@H](O)[C@H]1O [compound 7, garcimangophenone B]
